Values joined by “and” are separate entries in the source; they are usually repeats but may differ in a detail not shown here. Equal entries are not always repeated.
Test: NHP health screening: hematology (CBC)
Format: in vivo, rhesus macaques (Macaca mulatta)
[1] = treated female macaques, post-dosing bleed, Mean
[2] = treated macaques, end of study bleed, individual animals
[3] = treated macaques, mid-dosing bleed, individual animals

For `Cc1c(C(=O)N[C@H](C(=O)OCC2CCOCC2)C(C)C)ccc2c1B(O)OC2` [AN15368], the Mchc [1] was 32.2333 G/Dl, the Mcv [1] was 73.5333 fL and the Mono [1] was 0.2561 10^3/µL. The Mpv [1] was 7.553 fL, the Neut [1] was 2.507 10^3/µL and the Plt [1] was 330.353 10^3/µL. For the same molecule, the Rbc [1] was 5.521 10^6/µL, the Rdw [1] was 12.4778% and the Wbc [1] was 5.361 10^3/µL. For the same molecule, the Baso [2] was 0.01 10^3/µL and 0.02 10^3/µL and 0 10^3/µL, the Eos [2] was 0.07 10^3/µL and 0.12 10^3/µL and 0.02 10^3/µL and 0.06 10^3/µL and 0.17 10^3/µL and 0.01 10^3/µL and 0.05 10^3/µL and 0.21 10^3/µL and 0.16 10^3/µL and 0.03 10^3/µL and the Hct [2] was 39.5% and 45.3% and 41.2% and 45.7% and 43.1% and 42.5% and 44.2% and 44% and 41.8% and 40.4% and 42.9% and 44.8% and 39.8%. For the same molecule, the Hgb [2] was 11.9 G/Dl and 14.7 G/Dl and 12.8 G/Dl and 14.6 G/Dl and 13.3 G/Dl and 13.2 G/Dl and 13.6 G/Dl and 13.7 G/Dl and 13.1 G/Dl and 13 G/Dl and 12.9 G/Dl and 13.4 G/Dl and 12.3 G/Dl, the Lymp [2] was 1.75 10^3/µL and 3.93 10^3/µL and 1.62 10^3/µL and 3.5 10^3/µL and 2.42 10^3/µL and 0.76 10^3/µL and 1.4 10^3/µL and 2.46 10^3/µL and 2.32 10^3/µL and 1.59 10^3/µL and 0.91 10^3/µL and 2.37 10^3/µL and 1.53 10^3/µL and 1.63 10^3/µL and the Mch [2] was 21.9 Pgs and 22.2 Pgs and 23.6 Pgs and 24.2 Pgs and 22.7 Pgs and 21.7 Pgs and 21.5 Pgs and 23.8 Pgs and 22.4 Pgs and 22.3 Pgs and 22.5 Pgs and 22.9 Pgs. For the same molecule, the Mchc [2] was 30.1 G/Dl and 32.5 G/Dl and 31.1 G/Dl and 31.9 G/Dl and 30.9 G/Dl and 30.8 G/Dl and 29.6 G/Dl and 31.6 G/Dl and 32.2 G/Dl and 29.9 G/Dl, the Mcv [2] was 72.3 fL and 68.2 fL and 75.6 fL and 75.7 fL and 73.4 fL and 69.9 fL and 73.5 fL and 73.1 fL and 75.2 fL and 69.2 fL and 74.1 fL and 75.4 fL and 74.4 fL and the Mono [2] was 0.25 10^3/µL and 0.23 10^3/µL and 0.17 10^3/µL and 0.37 10^3/µL and 0.36 10^3/µL and 0.48 10^3/µL and 0.3 10^3/µL and 0.21 10^3/µL and 0.2 10^3/µL and 0.44 10^3/µL and 0.26 10^3/µL and 0.29 10^3/µL and 0.12 10^3/µL. For the same molecule, the Mpv [2] was 6.3 fL and 7.4 fL and 8.1 fL and 9.7 fL and 8.4 fL and 7 fL and 6.5 fL and 7.9 fL and 7.2 fL and 6.9 fL and 7.3 fL and 6.4 fL, the Neut [2] was 1.44 10^3/µL and 1.12 10^3/µL and 1.09 10^3/µL and 1.69 10^3/µL and 4.26 10^3/µL and 8.57 10^3/µL and 5.95 10^3/µL and 2.2 10^3/µL and 1.94 10^3/µL and 1.95 10^3/µL and 8.94 10^3/µL and 3.94 10^3/µL and 6.95 10^3/µL and 1.75 10^3/µL and the Plt [2] was 418 10^3/µL and 361 10^3/µL and 262 10^3/µL and 246 10^3/µL and 276 10^3/µL and 221 10^3/µL and 490 10^3/µL and 360 10^3/µL and 283 10^3/µL and 257 10^3/µL and 336 10^3/µL and 367 10^3/µL and 446 10^3/µL and 324 10^3/µL. The Rbc [2] was 5.46 10^6/µL and 6.64 10^6/µL and 5.45 10^6/µL and 6.04 10^6/µL and 5.87 10^6/µL and 6.08 10^6/µL and 6.01 10^6/µL and 6.02 10^6/µL and 6.11 10^6/µL and 5.56 10^6/µL and 5.84 10^6/µL and 5.79 10^6/µL and 5.94 10^6/µL and 5.35 10^6/µL, the Rdw [2] was 13.4% and 11.4% and 12.4% and 11.5% and 12.2% and 12.3% and 12.8% and 11.8% and the Wbc [2] was 3.51 10^3/µL and 5.42 10^3/µL and 2.91 10^3/µL and 5.63 10^3/µL and 7.21 10^3/µL and 9.83 10^3/µL and 7.73 10^3/µL and 5.19 10^3/µL and 4.54 10^3/µL and 3.78 10^3/µL and 10.31 10^3/µL and 6.74 10^3/µL and 8.9 10^3/µL and 3.54 10^3/µL. The Baso [3] was 0.01 10^3/µL and 0.02 10^3/µL and 0 10^3/µL, the Eos [3] was 0.07 10^3/µL and 0.09 10^3/µL and 0.04 10^3/µL and 0.06 10^3/µL and 0.16 10^3/µL and 0.08 10^3/µL and 0.05 10^3/µL and 0.18 10^3/µL and 0.19 10^3/µL and 0.2 10^3/µL and 0.02 10^3/µL and 0.26 10^3/µL and the Hct [3] was 41.2% and 42.7% and 40.7% and 46.1% and 39.7% and 43.4% and 40% and 40.3% and 41.5% and 41.9% and 42% and 39.6% and 43.3% and 43.7% and 42.6% and 38.2% and 38.9% and 39.9%.

From paper PMC9519446, “Discovery of an Orally Active Benzoxaborole Prodrug Effective in the Treatment of Chagas Disease in Non-human Primates” (Nature microbiology, 2022)
